The values that follow come from patent US12157741B2, “Macrocyclic inhibitors of DYRK1A” (DANA-FARBER CANCER INSTITUTE, INC., priority 2018, dated 2024).

Holding throughout (format): biochemical
In assay [1] the target is T1, CLK1 (Homo sapiens, UniProt P49759).
T1 construct: purchased Signalchem C57-11G
Briefly: CLK1 enzyme assay (Promega ADP-Glo Kinase assay). The conditions noted are these: 10 μM ATP, read-out: Enzyme activity against CLK1. The method, then: All CLK1 kinase inhibition assays were conducted by using Promega™ ADP-Glo™ Kinase assay systems (Cat No. V9102).
For DYRKIA enzyme assay, each inhibitor mixed with 0.1 μg/μL of substrate (MBP, SignalChem, M42-51N), 10 μM ATP (Promega™, Cat No. V9102), 1.6 ng of CLK1 enzyme (Signalchem, C57-11G) in 384-well plate. All samples were diluted with kinase reaction buffer (40 mM Tris HCl, 10 mM MgCL2, and 0.1 μg/μL BSA, 0.05 mM DTT). After 1 h reaction at 25° C., ADP-Glo™ (Promega™, Cat No. V9102) reagent was added and incubated at rt for 40 min. Finally, kinase detection reagent (Promega™, Cat No. V6930) was added and reacted at 25° C. for 10 min. The luminescence signals were detected by using Synergy™ Neo2 microplate reader (BioTek®). Compound inhibition curve was fitted using GraphPad Prism 8.0 software.
A general note: ADP-Glo first removes unused ATP, then detects ADP through luciferase.

Assay [2] concerns the target T2, LRRK2 (G2019S) (Homo sapiens, UniProt Q5S007, G2019S).
T2 construct: purchased SignalChem L10-12GG
Description: LRRK2(G2019S) enzyme assay (Promega ADP-Glo Kinase assay). To be noted: 25 μM ATP, read-out: Enzyme activity against LRRK2 (G2019S). How it is done: All LRRK2 kinase inhibition assays were conducted by using Promega™ ADP-Glo™ Kinase assay systems (Cat No. V4475).
For LRRK G2019S, each compound mixed with 0.2 μg/μL of substrate, 25 μM ATP, 16 ng of LRRK2 G2019S enzyme (SignalChem, L10-12GG). All samples were diluted with kinase reaction buffer (40 mmol/L TrisHCl, 10 mmol/L MgCl2, and 0.1 μg/μL BSA, 0.05 mM DTT). After a 2 h reaction at 25° C., ADP-Glo™ (Promega™, V9102) reagent was added and incubated at rt for 40 min. Finally, kinase detection reagent (Promega™, Cat No. V6930) was added and reacted at 25° C. for 10 min. The luminescence signals were detected by using Synergy™ Neo2 microplate reader (BioTek®). Compound inhibition curve was fitted using GraphPad Prism 8.0 software.

Assay [3] concerns the target T3, DYRK1A (Homo sapiens, UniProt Q13627).
T3 construct: purchased Thermo Fisher Scientific PR7189B
Description: DYRK1A enzyme assay (Promega ADP-Glo Kinase assay). To be noted: for IC50: ADP-Glo, 3 μM ATP, read-out: Enzyme activity against DYRK1A; for potency against DYRK1A (statement on Table 5): statement in words. The method, then: All DYRK1A kinase inhibition assays were conducted by using Promega™ ADP-Glo™ Kinase assay systems (Cat No. V9102).
For DYRK1A enzyme assay, each inhibitor mixed with 0.2 μg/μL of substrate (MVBP, SignalChem, M42-51N), 3 μM ATP (Promega™, Cat No. V9102), 3 ng of DYRK1A enzyme (Thermo Fisher Scientific, PR7189B) in 384-well plate. All samples were diluted with kinase reaction buffer (40 mM Tris HCl, 10 mM MgCL2, and 0.1 μg/μL BSA (bovine serum albumin), 0.05 mM DTT). After 1 h reaction at 25° C., ADP-Glo™ (Proeg™, V9102) reagent was added and incubated at rt for 40 min. Finally, kinase detection reagent (Promega™, Cat No. V6930) was added and reacted at 25° C. for 10 min. The luminescence signals were detected by using Synergy™ Neo2 microplate reader (BioTek®). Compound inhibition curve was fitted using GraphPad Prism 8.0 software.

For assay [4], the target named is T4, DYRK1B (Homo sapiens, UniProt Q9Y463).
T4 construct: purchased Invitrogen (assay run by the vendor)
Description: Invitrogen Zlyte assay, DYRK1B.

T2 sequence (Q5S007 whole entry G2019S): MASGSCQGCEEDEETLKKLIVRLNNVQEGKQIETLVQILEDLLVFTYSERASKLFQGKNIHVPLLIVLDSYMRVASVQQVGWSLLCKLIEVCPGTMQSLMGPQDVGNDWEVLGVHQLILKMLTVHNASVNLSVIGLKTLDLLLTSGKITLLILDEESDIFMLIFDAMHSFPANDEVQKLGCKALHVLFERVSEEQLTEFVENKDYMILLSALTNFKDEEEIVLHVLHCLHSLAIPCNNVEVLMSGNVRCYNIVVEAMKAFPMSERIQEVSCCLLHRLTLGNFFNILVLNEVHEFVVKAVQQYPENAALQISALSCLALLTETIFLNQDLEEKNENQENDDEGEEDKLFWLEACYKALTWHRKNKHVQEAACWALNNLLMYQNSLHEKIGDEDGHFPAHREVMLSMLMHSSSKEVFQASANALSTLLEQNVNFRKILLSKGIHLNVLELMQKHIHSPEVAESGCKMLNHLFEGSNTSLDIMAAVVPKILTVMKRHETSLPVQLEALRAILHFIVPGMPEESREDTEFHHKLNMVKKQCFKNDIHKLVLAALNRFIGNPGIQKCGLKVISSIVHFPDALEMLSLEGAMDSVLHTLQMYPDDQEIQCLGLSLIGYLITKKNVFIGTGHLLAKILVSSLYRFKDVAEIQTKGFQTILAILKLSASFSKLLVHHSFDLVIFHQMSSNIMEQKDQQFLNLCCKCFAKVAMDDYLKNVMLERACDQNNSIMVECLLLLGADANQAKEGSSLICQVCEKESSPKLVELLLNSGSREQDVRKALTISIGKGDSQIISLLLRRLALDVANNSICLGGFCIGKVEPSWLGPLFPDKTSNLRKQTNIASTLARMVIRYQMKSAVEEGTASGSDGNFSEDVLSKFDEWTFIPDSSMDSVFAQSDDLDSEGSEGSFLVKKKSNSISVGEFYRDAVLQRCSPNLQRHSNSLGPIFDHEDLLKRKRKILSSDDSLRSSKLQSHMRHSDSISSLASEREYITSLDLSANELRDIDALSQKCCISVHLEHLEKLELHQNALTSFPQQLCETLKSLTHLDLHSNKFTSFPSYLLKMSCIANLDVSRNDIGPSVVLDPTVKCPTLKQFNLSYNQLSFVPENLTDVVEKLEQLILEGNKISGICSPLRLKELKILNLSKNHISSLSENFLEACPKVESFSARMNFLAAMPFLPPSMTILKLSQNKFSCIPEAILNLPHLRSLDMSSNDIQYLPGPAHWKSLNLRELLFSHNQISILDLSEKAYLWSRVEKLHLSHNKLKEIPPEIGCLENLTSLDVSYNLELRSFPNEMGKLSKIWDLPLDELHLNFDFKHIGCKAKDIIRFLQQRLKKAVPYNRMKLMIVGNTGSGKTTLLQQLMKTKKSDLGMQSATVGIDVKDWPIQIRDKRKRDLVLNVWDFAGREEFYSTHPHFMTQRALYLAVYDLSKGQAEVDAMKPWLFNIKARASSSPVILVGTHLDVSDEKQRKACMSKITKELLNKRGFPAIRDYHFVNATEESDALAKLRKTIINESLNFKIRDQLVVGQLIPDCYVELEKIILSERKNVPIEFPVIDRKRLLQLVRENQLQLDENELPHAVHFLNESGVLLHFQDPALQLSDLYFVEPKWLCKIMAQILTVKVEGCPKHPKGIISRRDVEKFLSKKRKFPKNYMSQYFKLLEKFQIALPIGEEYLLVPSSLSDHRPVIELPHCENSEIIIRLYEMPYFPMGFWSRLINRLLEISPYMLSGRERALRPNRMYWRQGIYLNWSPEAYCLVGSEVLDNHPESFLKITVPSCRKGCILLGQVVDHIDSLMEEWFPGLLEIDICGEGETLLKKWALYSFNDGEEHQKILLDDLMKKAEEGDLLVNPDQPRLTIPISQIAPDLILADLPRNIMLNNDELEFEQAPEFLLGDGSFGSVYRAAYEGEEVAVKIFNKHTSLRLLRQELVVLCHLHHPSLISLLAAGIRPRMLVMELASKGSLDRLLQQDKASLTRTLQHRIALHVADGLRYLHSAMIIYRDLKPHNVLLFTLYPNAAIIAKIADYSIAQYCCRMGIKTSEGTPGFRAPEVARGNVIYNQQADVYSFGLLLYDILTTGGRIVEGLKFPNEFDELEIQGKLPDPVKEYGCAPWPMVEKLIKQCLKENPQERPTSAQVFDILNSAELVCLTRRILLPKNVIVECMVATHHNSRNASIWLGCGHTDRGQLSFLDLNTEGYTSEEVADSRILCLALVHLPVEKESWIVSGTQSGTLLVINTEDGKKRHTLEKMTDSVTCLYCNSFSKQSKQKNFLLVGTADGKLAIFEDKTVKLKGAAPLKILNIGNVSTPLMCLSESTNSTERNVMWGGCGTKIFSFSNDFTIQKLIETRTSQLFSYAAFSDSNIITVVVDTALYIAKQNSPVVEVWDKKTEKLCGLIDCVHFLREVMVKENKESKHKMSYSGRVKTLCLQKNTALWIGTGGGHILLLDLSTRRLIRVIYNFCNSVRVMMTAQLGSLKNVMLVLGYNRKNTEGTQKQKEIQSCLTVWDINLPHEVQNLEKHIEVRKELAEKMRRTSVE
T1 sequence (P49759 whole entry): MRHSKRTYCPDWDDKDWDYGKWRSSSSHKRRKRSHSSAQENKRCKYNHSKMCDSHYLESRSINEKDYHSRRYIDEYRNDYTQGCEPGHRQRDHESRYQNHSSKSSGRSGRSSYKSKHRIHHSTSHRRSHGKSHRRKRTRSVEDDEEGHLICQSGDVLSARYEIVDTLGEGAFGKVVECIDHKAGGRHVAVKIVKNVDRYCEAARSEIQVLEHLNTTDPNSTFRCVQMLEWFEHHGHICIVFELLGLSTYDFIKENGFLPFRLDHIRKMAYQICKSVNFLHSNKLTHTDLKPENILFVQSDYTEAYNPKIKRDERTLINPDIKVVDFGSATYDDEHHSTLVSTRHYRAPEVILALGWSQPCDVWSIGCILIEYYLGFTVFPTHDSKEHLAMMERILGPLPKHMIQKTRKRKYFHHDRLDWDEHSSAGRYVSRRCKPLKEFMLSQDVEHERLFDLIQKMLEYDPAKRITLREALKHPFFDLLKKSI
T4 sequence (Q9Y463 whole entry): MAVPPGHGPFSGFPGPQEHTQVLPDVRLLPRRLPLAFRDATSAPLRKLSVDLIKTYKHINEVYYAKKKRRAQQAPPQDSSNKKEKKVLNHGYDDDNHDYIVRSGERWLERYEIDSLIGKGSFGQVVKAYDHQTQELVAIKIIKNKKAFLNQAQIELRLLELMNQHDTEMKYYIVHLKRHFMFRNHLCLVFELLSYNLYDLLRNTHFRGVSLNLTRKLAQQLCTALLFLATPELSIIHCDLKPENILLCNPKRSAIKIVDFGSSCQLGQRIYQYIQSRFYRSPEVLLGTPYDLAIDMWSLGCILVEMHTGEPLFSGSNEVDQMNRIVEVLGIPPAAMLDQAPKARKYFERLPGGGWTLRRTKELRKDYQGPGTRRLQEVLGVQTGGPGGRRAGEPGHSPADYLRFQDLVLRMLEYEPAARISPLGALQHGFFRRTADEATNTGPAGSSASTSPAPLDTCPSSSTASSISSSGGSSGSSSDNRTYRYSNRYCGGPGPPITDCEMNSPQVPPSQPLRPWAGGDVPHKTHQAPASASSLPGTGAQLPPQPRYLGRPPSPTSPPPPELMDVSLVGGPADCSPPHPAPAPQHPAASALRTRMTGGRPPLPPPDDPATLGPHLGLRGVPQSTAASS

`CN1Cc2nn(C)cc2-c2cnc3[nH]cc(c3c2)-c2cn(nc2C(F)(F)F)CCCC1=O` [Compound 43, (Z)-31,5-dimethyl-13-(trifluoromethyl)-11H,21H,31H-5-aza-2(3,5)-pyrrolo[2,3-b]pyridina-1(4,1),3(4,3)-dipyrazolacyclononaphan-6-one]: the values for the IC50 in assay [1], in assay [2] and in assay [3] were below 50 nM, above 100 nM and below 50 nM, respectively. Further, the “potency against DYRK1A (statement on Table 5)” value (from here on “potency against DYRK1A”) in assay [3] is given as “most potent”.

In turn, `COc1c2c(nn1C)CN(C(C)C)C(=O)CCCn1cc(c(C(F)(F)F)n1)-c1c(C)[nH]c3ncc-2cc13` [Compound 51, (Z)-5-isopropyl-35-methoxy-22,31-dimethyl-13-(trifluoromethyl)-11H,21H,31H-5-aza-2(3,5)-pyrrolo[2,3-b]pyridina-1(4,1),3(4,3)-dipyrazolacyclononaphan-6-one] came in with an IC50 in assay [4] of 533 nM.

With `Cc1[nH]c2ncc3cc2c1-c1cn(nc1C(F)(F)F)CCCC(=O)N(C)Cc1nn(C)c(C#N)c1-3` [Compound 52, (Z)-22,31,5-trimethyl-6-oxo-13-(trifluoromethyl)-11H,21H,31H-5-aza-2(3,5)-pyrrolo[2,3-b]pyridina-1(4,1),3(4,3)-dipyrazolacyclononaphane-35-carbonitrile], the IC50 in assay [4] came to 55 nM.

As for `COCCn1cc2c(n1)CN(C)C(=O)CCCn1cc(c(C(F)(F)F)n1)-c1c[nH]c3ncc-2cc13` [Compound 59, (Z)-31-(2-methoxyethyl)-5-methyl-13-(trifluoromethyl)-11H,21H,31H-5-aza-2(3,5)-pyrrolo[2,3-b]pyridina-1(4,1),3(4,3)-dipyrazolacyclononaphan-6-one], the IC50 was below 50 nM in assay [1], above 100 nM in assay [2] and below 50 nM in assay [3]. Also, in assay [3], the “potency against DYRK1A” value was “most potent”.

Consider `CN1Cc2nn(C3CCNCC3)cc2-c2cnc3[nH]cc(c3c2)-c2cn(nc2C(F)(F)F)CCCC1=O` [Compound 60, (Z)-5-methyl-31-(piperidin-4-yl)-13-(trifluoromethyl)-11H,21H,31H-5-aza-2(3,5)-pyrrolo[2,3-b]pyridina-1(4,1),3(4,3)-dipyrazolacyclononaphan-6-one], for which the IC50 in assay [1] was below 50 nM; in assay [2] it was above 100 nM; in assay [3], below 50 nM. Moreover, in assay [3], the “potency against DYRK1A” value is reported as “most potent”.

Take `COCCn1nc2c(c1C#N)-c1cnc3[nH]cc(c3c1)-c1cn(nc1C(F)(F)F)CCCC(=O)N(C)C2` [Compound 61, (Z)-31-(2-methoxyethyl)-5-methyl-6-oxo-13-(trifluoromethyl)-11H,21H,31H-5-aza-2(3,5)-pyrrolo[2,3-b]pyridina-1(4,1),3(4,3)-dipyrazolacyclononaphane-35-carbonitrile]: the IC50 was above 100 nM in assay [1], above 100 nM in assay [2] and below 50 nM in assay [3]. For the same compound, the “potency against DYRK1A” value in assay [3] is recorded as “most potent”.

As for `CN1Cc2nn(C)cc2-c2cnc3[nH]cc(c3c2)-c2cn(nc2C(F)(F)F)CCC1=O` [Compound 63, (Z)-31,5-dimethyl-13-(trifluoromethyl)-11H,21H,31H-5-aza-2(3,5)-pyrrolo[2,3-b]pyridina-1(4,1),3(4,3)-dipyrazolacyclooctaphan-6-one], the IC50 in assay [1] was below 50 nM; in assay [2] it was 50 to 100 nM; in assay [3] it was 50 to 100 nM.

`CN1Cc2nn(C3CCNCC3)cc2-c2cnc3[nH]cc(c3c2)-c2cn(nc2C(F)(F)F)CCC1=O` [Compound 65, (Z)-5-methyl-31-(piperidin-4-yl)-13-(trifluoromethyl)-11H,21H,31H-5-aza-2(3,5)-pyrrolo[2,3-b]pyridina-1(4,1),3(4,3)-dipyrazolacyclooctaphan-6-one]: the IC50 in assay [1], in assay [2] and in assay [3] was above 100 nM in each case.

Take `COCCn1nc2c(c1C#N)-c1cnc3[nH]cc(c3c1)-c1cn(nc1C(F)(F)F)CCC(=O)N(C)C2` [Compound 67, (Z)-31-(2-methoxyethyl)-5-methyl-6-oxo-13-(trifluoromethyl)-11H,21H,31H-5-aza-2(3,5)-pyrrolo[2,3-b]pyridina-1(4,1),3(4,3)-dipyrazolacyclooctaphane-35-carbonitrile]: the values for the IC50 in assay [1], in assay [2] and in assay [3] were above 100 nM, above 100 nM and below 50 nM, respectively. Also, the “potency against DYRK1A” value in assay [3] is reported as “most potent”.

With `CN1CCCCn2cc(c(C(F)(F)F)n2)-c2c[nH]c3ncc(cc23)-c2cn(C)nc2C1=O` [Compound 75, (Z)-31,5-dimethyl-13-(trifluoromethyl)-11H,21H,31H-5-aza-2(3,5)-pyrrolo[2,3-b]pyridina-1(4,1),3(4,3)-dipyrazolacyclononaphan-4-one], the IC50 in assay [1], in assay [2] and in assay [3] was above 100 nM each time.

With `CN1CCCCn2cc(c(C(F)(F)F)n2)-c2c[nH]c3ncc(cc23)-c2c(nn(C)c2C#N)C1=O` [Compound 78, (Z)-31,5-dimethyl-4-oxo-13-(trifluoromethyl)-11H,21H,31H-5-aza-2(3,5)-pyrrolo[2,3-b]pyridina-1(4,1),3(4,3)-dipyrazolacyclononaphane-35-carbonitrile], the IC50 in assay [1], in assay [2] and in assay [3] was above 100 nM each time.
